Where two headings read alike, the source gives them in different places.
Tests used:
Assay type in all cases: cell-based
HTT mRNA = assay: RT-qPCR splicing assay, HTT canonical (CJ) and alternative (AJ) junction mRNA; conditions: Homo sapiens; for IC50: read-out: HTT CJ IC50; for AC50: increase in alternative junction mRNA, read-out: HTT AJ AC50
Method: (§1) Compounds described herein were used to modulate RNA transcript abundance in cells. The expression of a target mRNA was measured by detecting the formation of an exon-exon junction in the canonical transcript (CJ). A compound mediated exon-inclusion event was detected by observing an increase in formation of a new junction with an alternative exon (AJ). Real-time qPCR assays were used to detect these splicing switches and interrogate the potency of various compounds towards different target genes. A high-throughput real time quantitative PCR (RT-qPCR) assay was developed to measure these two isoforms of the mRNA (CJ and AJ) for exemplary genes, such as HTT, SMN2, and MYB, together with a control housekeeping gene, GAPDH or GUSB or PPIA, used for normalization. Briefly, the A673 or K562 cell line was treated with various compounds described herein (e.g., compounds of Formula (I)). After treatment, the levels of the HTT, MYB, or SMN2 mRNA targets were determined from each sample of cell lysate by cDNA synthesis followed by qPCR.
(§2) • Cells-to-CT 1-step kit: ThermoFisher A25602, Cells-to-CT lysis reagent: ThermoFisher 4391851C, TaqMan™ Fast Virus 1-Step Master Mix: ThermoFisher 4444436 • GAPDH: VIC-PL, ThermoFisher 4326317E (Assay: Hs99999905_m1)—used for K562/suspension cell lines • GUSB: VIC-PL, ThermoFisher 4326320E (Assay: Hs99999908_m1)—used for K562/suspension cell lines • PPIA: VIC-PL, ThermoFisher 4326316E (Assay: Hs99999904_m1)—used for A673/adherent cell lines
(§3) The A673 cell line was cultured in DMEM with 10% FBS. Cells were diluted with full growth media and plated in a 96-well plate (15,000 cells in 100 ul media per well). The plate was incubated at 37° C. with 5% CO2 for 24 hours to allow cells to adhere. An 11-point 3-fold serial dilution of the compounds was made in DMSO then diluted in media in an intermediate plate. Compounds were transferred from the intermediate plate to the cell plate with the top dose at a final concentration of 10 uM in the well. Final DMSO concentration was kept at or below 0.25%. The cell plate was returned to the incubator at 37° C. with 5% CO2 for an additional 24 hours.
(§4) The K562 cell line was cultured in IMDM with 10% FBS. For K562, cells were diluted with full growth media and plated in either a 96-well plate (50,000 cells in 50 uL media per well) or a 384-well plate (8,000-40,000 cells in 45 uL media per well). An 11-point 3-fold serial dilution of the compounds were made in DMSO then diluted in media in an intermediate plate. Compound was transferred from the intermediate plate to the cell plate with the top dose at a final concentration of 10 uM in the well. Final DMSO concentration was kept at or below 0.25%. Final volume was 100 uL for 96-well plate and 50 uL for 384-well plate. The cell plate was then placed in an incubator at 37° C. with 5% CO2 for 24 hours.
(§5) The cells were then gently washed with 50 uL-100 uL cold PBS before proceeding to addition of lysis buffer. 30 uL-50 μL of room temperature lysis buffer with DNAse I (and optionally RNAsin) was added to each well. Cells were shaken/mixed thoroughly at room temperature for 5-10 minutes for lysis to take place and then 3 uL-5 μL of room temperature stop solution was added and wells were shaken/mixed again. After 2-5 minutes, the cell lysate plate was transferred to ice for RT-qPCR reaction setup. The lysates could also be frozen at −80° C. for later use.
(§6) In some cases, a direct lysis buffer was used. An appropriate volume of 3× lysis buffer (10 mM Tris, 150 mM NaCl, 1.5%-2.5% Igepal and 0.1-1 U/uL RNAsin, pH 7.4) was directly added to either K562 or A673 cells in media and mixed by pipetting 3 times. The plates were then incubated at room temperature with shaking/rocking for 20-50 minutes to allow for lysis to take place. After this time, the cell lysate plate was transferred to ice to set up for the RT-qPCR reactions. The lysates could also be frozen at −80° C. for later use. […]

SMN2 mRNA = assay: RT-qPCR splicing assay, gene panel, SMN2 canonical junction (CJ) mRNA; conditions: Homo sapiens; decrease in CJ mRNA levels; larger panel of genes; Table 3; read-out: SMN2 CJ IC50
Method: as §1, §3, §4, §5
(§7) In some cases, a direct lysis buffer was used. An appropriate volume of 3× lysis buffer (10 mM Tris, 150 mM NaCl, 1.5%-2.5% Igepal and 0.1-1 U/uL RNAsin, pH 7.4) was directly added to either K562 or A673 cells in media and mixed by pipetting 3 times. The plates were then incubated at room temperature with shaking/rocking for 20-50 minutes to allow for lysis to take place. After this time, the cell lysate plate was transferred to ice to set up for the RT-qPCR reactions. The lysates could also be frozen at −80° C. for later use.
(§8) To set up 10 uL RT-qPCR reactions, cell lysates were transferred to 384-well qPCR plates containing the master mix according to the table below. The plates were sealed, gently vortexed, and spun down before the run. The volumes were adjusted accordingly in some instances where the reaction was carried in 20 μL. The table below summarizes the components of the RT-qPCR reactions:
(§9) The RT-qPCR reaction was performed using a QuantStudio (ThermoFisher) under the following fast cycling conditions. […]

Target C = assay: RT-qPCR splicing assay, gene panel, Target C canonical junction (CJ) mRNA; conditions: Homo sapiens; decrease in CJ mRNA levels; larger panel of genes; Table 3; read-out: Target C CJ IC50
Method: as §1, §3, §4, §5, §7, §8, §9

MYB mRNA = assay: RT-qPCR splicing assay, MYB canonical (CJ) and alternative (AJ) junction mRNA; conditions: Homo sapiens; for IC50: read-out: MYB CJ IC50; for AC50: increase in alternative junction mRNA, read-out: MYB AJ AC50
Method: as §1, §2, §3, §4, §5, §6

K562 cells = assay: Cell Titer Glo 2.0 cell viability assay; conditions: Homo sapiens, 500 cells/well, 72 hours
Method: Compounds described herein were screened for toxicity in K562 (human chronic myelogenous leukemia) and SH-SY5Y (human neuroblastoma) cells using a Cell Titer Glo 2.0 assay. • Promega CellTiter-Glo® 2.0 Cell Viability Assay (cat #G9241) • Corning 384-well TC-treated microplates (cat #3570) Cells were plated at 500 cells/well (K562 cells) in 45 μL of IMDM supplemented with 10% FBS in a 384-well opaque plate. Wells containing only medium were used as a blank control. Test compounds (e.g., compounds of Formula (I), (II), or (III)) were first serially diluted in DMSO then diluted 1:100 with IMDM+10% FBS. The final concentration of DMSO was 0.1% in each well. The cells were incubated for 72 hours at 37° C. and 5% CO2 before assaying with Cell Titer Glo 2.0 reagent.

[1] = decrease in CJ mRNA levels, larger panel of genes, Table 3
[2] = decrease in canonical junction mRNA, A673 or K562 cells, 24 hours treatment, Table 2
[3] = A673 or K562 cells, 24 hours treatment, Table 2

Compound | IC50 (HTT mRNA; [1]) | IC50 (HTT mRNA; [2]) | AC50 (HTT mRNA; [3]) | IC50 (SMN2 mRNA) | IC50 (Target C) | IC50 (MYB mRNA; [1]) | IC50 (MYB mRNA; [2]) | AC50 (MYB mRNA; [3]) | GI50 (K562 cells)
Cc1cn2nc(-c3cc(F)c4nn(C5CCN(C(C)(C)C)CC5)cc4c3)cc(C)c2n1 [Compound 207, 2-(1-tert-butylpiperidin-4-yl)-5-{2,8-dimethylimidazo[1,2-b]pyridazin-6-yl}-7-fluoroindazole] | 100 to 1000 nM | 100 to 1000 nM | 100 to 1000 nM | < 100 nM | 1000 to 10000 nM | 100 to 1000 nM | 100 to 1000 nM | 100 to 1000 nM | –
Cc1cn2nc(-c3ccc4nn(C5CCNC6(CC6)C5)cc4n3)cc(C)c2n1 (stereo not drawn) [Compound 201, 6-[2-(4-azaspiro[2.5]octan-7-yl)pyrazolo[4,3-b]pyridine-5-yl]-2,8-dimethyl-imidazo[1,2-b]pyridazine] | 100 to 1000 nM | 100 to 1000 nM | 1000 to 10000 nM | 100 to 1000 nM | 1000 to 10000 nM | 1000 to 10000 nM | 1000 to 10000 nM | 1000 to 10000 nM | 1000 to 10000 nM
Cc1cn2nc(-c3cc(F)c4nn(C5CCNC6(CC6)C5)cc4c3)cc2c(C)n1 (stereo in doubt) [Compound 205, 2-[2-[(7S)-4-azaspiro[2.5]octan-7-yl]-7-fluoro-indazol-5-yl]-4,6-dimethyl-pyrazolo[1,5-a]pyrazine] | 100 to 1000 nM | 100 to 1000 nM | 100 to 1000 nM | 100 to 1000 nM | 1000 to 10000 nM | 1000 to 10000 nM | 1000 to 10000 nM | 100 to 1000 nM | 1000 to 10000 nM
Cc1cn2nc(-c3cc(F)c4nn(C5CCNC6(CC6)C5)cc4c3)cc2c(C)n1 (stereo not drawn) [Compound 204, 2-[2-(4-azaspiro[2.5]octan-7-yl)-7-fluoro-indazol-5-yl]-4,6-dimethyl-pyrazolo[1,5-a]pyrazine] | 100 to 1000 nM | 100 to 1000 nM | 100 to 1000 nM | 100 to 1000 nM | 100 to 1000 nM | 1000 to 10000 nM | 1000 to 10000 nM | 1000 to 10000 nM | 1000 to 10000 nM
Cc1cn2nc(-c3cc(F)c4nn(C5CCNC6(CC6)C5)cc4c3)cc2c(C)n1 (stereo in doubt) [Compound 206, 2-[2-[(7R)-4-azaspiro[2.5]octan-7-yl]-7-fluoro-indazol-5-yl]-4,6-dimethyl-pyrazolo[1,5-a]pyrazine] | < 100 nM | < 100 nM | 100 to 1000 nM | 100 to 1000 nM | 100 to 1000 nM | 100 to 1000 nM | 100 to 1000 nM | 100 to 1000 nM | 100 to 1000 nM
Cc1cn2nc(-c3cc(F)c4nn([C@@H]5CCN(C)C[C@H]5F)cc4c3)cc(C)c2n1 [Compound 197, 6-(7-fluoro-2-((3R,4R)-3-fluoro-1-methylpiperidin-4-yl)-2H-indazol-5-yl)-2,8-dimethylimidazo[1,2-b]pyridazine] | 100 to 1000 nM | 100 to 1000 nM | 100 to 1000 nM | 100 to 1000 nM | 1000 to 10000 nM | 1000 to 10000 nM | 1000 to 10000 nM | 1000 to 10000 nM | 1000 to 10000 nM
Cc1cn2nc(-c3cc(F)c4nn([C@H]5CCN(C)C[C@@H]5F)cc4c3)cc(C)c2n1 [Compound 196, 6-[7-fluoro-2-[(3S,4S)-3-fluoro-1-methyl-4-piperidyl]indazol-5-yl]-2,8-dimethyl-imidazo[1,2-b]pyridazine] | 1000 to 10000 nM | 1000 to 10000 nM | 1000 to 10000 nM | 100 to 1000 nM | > 10000 nM | > 10000 nM | > 10000 nM | 1000 to 10000 nM | > 10000 nM
Cc1cn2nc(-c3nc4cn(C5CCNCC5)nc4c(=O)[nH]3)cc(C)c2n1 [Compound 211, 5-(2,8-dimethylimidazo[1,2-b]pyridazin-6-yl)-2-(4-piperidyl)-6H-pyrazolo[4,3-d]pyrimidin-7-one] | < 100 nM | < 100 nM | 100 to 1000 nM | < 100 nM | – | 100 to 1000 nM | 100 to 1000 nM | 100 to 1000 nM | –
Cc1cn2nc(-c3cc(C)c4nn(C5CCNC6(CC6)C5)cc4n3)cc(C)c2n1 (stereo not drawn) [Compound 208, 2-(4-azaspiro[2.5]octan-7-yl)-5-(2,8-dimethylimidazo[1,2-b]pyridazin-6-yl)-7-methyl-pyrazolo[4,3-b]pyridine] | > 10000 nM | > 10000 nM | > 10000 nM | 1000 to 10000 nM | > 10000 nM | > 10000 nM | > 10000 nM | > 10000 nM | –
Cc1cn2nc(-c3cc(F)c4nn([C@@H]5CCN(C)C6(CC6)C5)cc4c3)cc(C)c2n1 [Compound 176, 6-[7-fluoro-2-[(7R)-4-methyl-4-azaspiro[2.5]octan-7-yl]indazol-5-yl]-2,8-dimethyl-imidazo[1,2-b]pyridazine] | < 100 nM | < 100 nM | < 100 nM | – | 100 to 1000 nM | 100 to 1000 nM | 100 to 1000 nM | 1000 to 10000 nM | 100 to 1000 nM
Cc1cn2nc(-c3cc(F)c4nn([C@H]5CCN(C)C6(CC6)C5)cc4c3)cc(C)c2n1 [Compound 175, 6-[7-fluoro-2-[(7S)-4-methyl-4-azaspiro[2.5]octan-7-yl]indazol-5-yl]-2,8-dimethyl-imidazo[1,2-b]pyridazine] | < 100 nM | < 100 nM | < 100 nM | – | < 100 nM | 100 to 1000 nM | 100 to 1000 nM | < 100 nM | 100 to 1000 nM

From patent US20250082633A1, “COMPOUNDS AND METHODS FOR MODULATING SPLICING” (REMIX THERAPEUTICS INC., priority 2021, published 2025)
